The record followed here is ChEMBL document CHEMBL1131216, “Anhydrolide macrolides. 2. Synthesis and antibacterial activity of 2,3-anhydro-6-O-methyl 11,12-carbazate erythromycin A analogues” (1998).

Converted amounts (≈) assume the structure as drawn. Some results are limits rather than exact numbers.

What all share (assay type): functional
One test relates to Haemophilus influenzae. Briefly: In vitro antibacterial activity of DILL strain of Gram negative bacteria Haemophilus influenzae.
The subject of test [1] is Streptococcus pneumoniae. Briefly: In vitro antibacterial activity of 5649 strain of Gram positive bacteria Streptococcus pneumoniae.
Test [2] concerns Streptococcus pneumoniae. Description: In vitro antibacterial activity of 5979 strain of Gram positive bacteria Streptococcus pneumoniae.
For test [3], the system named is Streptococcus pneumoniae. Description: In vitro antibacterial activity of ATCC 6303 strain of Gram positive bacteria Streptococcus pneumoniae.
The subject of test [4] is Staphylococcus aureus. Briefly: In vivo antibacterial activity of NCTC-10649 strain of Gram positive bacteria Staphylococcus aureus.
Test [5] deals with Streptococcus pneumoniae. Description: In vivo antibacterial activity of ATCC 6303 strain of Gram positive bacteria Streptococcus pneumoniae (95% confidence interval).
Test [6] deals with Staphylococcus aureus. Description: In vitro antibacterial activity of A5177 strain of Gram positive bacteria Staphylococcus aureus.
For test [7], the system named is Staphylococcus aureus. Description: In vivo antibacterial activity of NCTC-10649 strain of Gram positive bacteria Staphylococcus aureus (95% confidence interval).
The subject of test [8] is Streptococcus pneumoniae. Description: In vivo antibacterial activity of ATCC 6303 strain of Gram positive bacteria Streptococcus pneumoniae.
Test [9] has as its system Streptococcus pyogenes. Description: In vitro antibacterial activity of 930 strain of Gram positive bacteria Streptococcus pyogenes.
The test system of test [10] is Streptococcus pyogenes. Description: In vitro antibacterial activity of EES61 strain of Gram positive bacteria Streptococcus pyogenes.
Test [11] has as its system Streptococcus pyogenes. Description: In vitro antibacterial activity of PIU2584 strain of Gram positive bacteria Streptococcus pyogenes.
For test [12], the system named is Staphylococcus aureus. Briefly: In vitro antibacterial activity of A-5278 strain of Gram positive bacteria Staphylococcus aureus.
Test [13] deals with Staphylococcus aureus. Briefly: In vitro antibacterial activity of 6538P strain of Gram positive bacteria Staphylococcus aureus.

One may read the ED50 as the midpoint of the dose-response relation. Low values mean greater potency, high ones weaker potency. Turning to `CC[C@H]1OC(=O)/C(C)=C/[C@H](C)[C@@H](O[C@@H]2O[C@H](C)C[C@H](N(C)C)[C@H]2O)[C@@](C)(OC)C[C@@H](C)C(=O)[C@H](C)[C@H]2N(NC/C=C/c3ccc([N+](=O)[O-])cc3)C(=O)O[C@]12C`, the MIC in the test on Haemophilus influenzae was 8 µg/mL (≈ 10.4 µM); with Streptococcus pneumoniae [1] it was 1 µg/mL (≈ 1.29 µM); in the test on Streptococcus pneumoniae [2], 64 µg/mL (≈ 82.8 µM); against Streptococcus pneumoniae [3], 0.03 µg/mL (≈ 0.0388 µM); with Staphylococcus aureus [4], 0.2 µg/mL (≈ 0.259 µM); against Staphylococcus aureus [6], 0.2 µg/mL (≈ 0.259 µM). In addition, the MIC in the test with Streptococcus pneumoniae [8] was 0.004 µg/mL (≈ 0.00518 µM); with Streptococcus pyogenes [9], 32 µg/mL (≈ 41.4 µM); against Streptococcus pyogenes [10], 0.06 µg/mL (≈ 0.0776 µM); against Streptococcus pyogenes [11], 1 µg/mL (≈ 1.29 µM); in the test on Staphylococcus aureus [12], 100 µg/mL (≈ 129 µM); with Staphylococcus aureus [13], 0.2 µg/mL (≈ 0.259 µM). Moreover, the ED50 in the test with Streptococcus pneumoniae [5] turned out to be 16.8 mg/kg/day; in the test with Staphylococcus aureus [7] it was 50.1 mg/kg/day.

As to `CC[C@H]1OC(=O)/C(C)=C/[C@H](C)[C@@H](O[C@@H]2O[C@H](C)C[C@H](N(C)C)[C@H]2O)[C@@](C)(OC)C[C@@H](C)C(=O)[C@H](C)[C@H]2N(NC/C=C/c3ccc(N)cc3)C(=O)O[C@]12C`, the MIC in the test with Haemophilus influenzae was 2 µg/mL (≈ 2.69 µM); in the test on Streptococcus pneumoniae [1] it was 1 µg/mL (≈ 1.35 µM); in the test with Streptococcus pneumoniae [2] it was more than 128 µg/mL; against Streptococcus pneumoniae [3], 0.03 µg/mL (≈ 0.0404 µM); with Staphylococcus aureus [4] it was 0.2 µg/mL (≈ 0.269 µM); against Staphylococcus aureus [6] it was 0.2 µg/mL (≈ 0.269 µM). Moreover, the MIC was 0.03 µg/mL (≈ 0.0404 µM) in the test with Streptococcus pneumoniae [8]; more than 128 µg/mL against Streptococcus pyogenes [9]; 0.03 µg/mL (≈ 0.0404 µM) with Streptococcus pyogenes [10]; 1 µg/mL (≈ 1.35 µM) in the test with Streptococcus pyogenes [11]; more than 100 µg/mL in the test on Staphylococcus aureus [12]; 0.2 µg/mL (≈ 0.269 µM) against Staphylococcus aureus [13]. The figures for the ED50 in the test with Streptococcus pneumoniae [5] and in the test with Staphylococcus aureus [7] were 9.9 mg/kg/day and 39.9 mg/kg/day, respectively.
